According to the supplement of paper PMC10307832:

Legend:
Experiment in all cases: relative viability (nuclei count vs DMSO), 5 days (fraction); higher = more cells survive
NCI-H522 = test system: NCI-H522
In short: (§1)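 Lung cancer cell lines were pin-tool dosed in 1536-well plates on the day after seeding, with either a lone drug or a fixed anchor-drug dose plus five library-drug doses (not always all listed) in √10 steps. Nuclei were counted on 4× images after 5 days. Relative viability is the ratio of treated-well to vehicle-well nuclei counts, with each value a median of duplicate plates.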

NCI-H1734 = test system: NCI-H1734
In short: as §1

COR-L23 = test system: COR-L23
In short: as §1

LU99A = test system: LU99A
In short: as §1

NCI-H1648 = test system: NCI-H1648
In short: as §1

NCI-H1944 = test system: NCI-H1944
In short: as §1

BEN = test system: BEN
In short: as §1

COR-L 105 = test system: COR-L 105
In short: as §1

201T = test system: 201T
In short: as §1

HARA = test system: HARA
In short: as §1

NCI-H2342 = test system: NCI-H2342
In short: as §1

EKVX = test system: EKVX
In short: as §1

SK-LU-1 = test system: SK-LU-1
In short: as §1

NCI-H1993 = test system: NCI-H1993
In short: as §1

HCC-366 = test system: HCC-366
In short: as §1

LXF-289 = test system: LXF-289
In short: as §1

NCI-H596 = test system: NCI-H596
In short: as §1

HCC-78 = test system: HCC-78
In short: as §1

NCI-H1975 = test system: NCI-H1975
In short: as §1

NCI-H1650 = test system: NCI-H1650
In short: as §1

NCI-H3122 = test system: NCI-H3122
In short: as §1

HCC-827 = test system: HCC-827
In short: as §1

HCC-15 = test system: HCC-15
In short: as §1

NCI-H1755 = test system: NCI-H1755
In short: as §1

Question: What does the source list for `CCCCCCCCCCCC1=C(O)C(=O)C=C(O)C1=O` [Embelin] + Cc1cc(Nc2cc(N3CCN(C)CC3)nc(Sc3ccc(NC(=O)C4CC4)cc3)n2)n[nH]1 [Tozasertib] (partner 0.1 µM)?
Answer: relative viability (NCI-H522; first compound 0.08 µM): 0.617; relative viability (NCI-H522; first compound 0.8 µM): 0.577; relative viability (NCI-H522; first compound 2.53 µM): 0.513; relative viability (NCI-H522; first compound 8 µM): 0.532; relative viability (NCI-H1734; first compound 0.08 µM): 0.26; relative viability (NCI-H1734; first compound 0.8 µM): 0.27; relative viability (NCI-H1734; first compound 2.53 µM): 0.292; relative viability (NCI-H1734; first compound 8 µM): 0.262; relative viability (COR-L23; first compound 0.08 µM): 0.191; relative viability (COR-L23; first compound 0.8 µM): 0.253; relative viability (COR-L23; first compound 2.53 µM): 0.233; relative viability (COR-L23; first compound 8 µM): 0.19; relative viability (LU99A; first compound 0.08 µM): 0.331; relative viability (LU99A; first compound 0.8 µM): 0.261; relative viability (LU99A; first compound 2.53 µM): 0.277; relative viability (LU99A; first compound 8 µM): 0.264; relative viability (NCI-H1648; first compound 0.08 µM): 0.472; relative viability (NCI-H1648; first compound 0.8 µM): 0.627; relative viability (NCI-H1648; first compound 2.53 µM): 0.366; relative viability (NCI-H1648; first compound 8 µM): 0.582; relative viability (NCI-H1944; first compound 0.08 µM): 0.262; relative viability (NCI-H1944; first compound 0.8 µM): 0.261; relative viability (NCI-H1944; first compound 2.53 µM): 0.262; relative viability (NCI-H1944; first compound 8 µM): 0.276; relative viability (BEN; first compound 0.08 µM): 0.518; relative viability (BEN; first compound 0.8 µM): 0.591; relative viability (BEN; first compound 2.53 µM): 0.542; relative viability (BEN; first compound 8 µM): 0.512; relative viability (COR-L 105; first compound 0.08 µM): 0.363; relative viability (COR-L 105; first compound 0.8 µM): 0.386; relative viability (COR-L 105; first compound 2.53 µM): 0.367; relative viability (COR-L 105; first compound 8 µM): 0.35; relative viability (201T; first compound 0.08 µM): 0.934; relative viability (201T; first compound 0.8 µM): 0.963; relative viability (201T; first compound 2.53 µM): 0.94; relative viability (201T; first compound 8 µM): 1.06; relative viability (HARA; first compound 0.08 µM): 0.106; relative viability (HARA; first compound 0.8 µM): 0.105; relative viability (HARA; first compound 2.53 µM): 0.119; relative viability (HARA; first compound 8 µM): 0.133; relative viability (NCI-H2342; first compound 0.08 µM): 0.6; relative viability (NCI-H2342; first compound 0.8 µM): 0.641; relative viability (NCI-H2342; first compound 2.53 µM): 0.527; relative viability (NCI-H2342; first compound 8 µM): 0.479; relative viability (EKVX; first compound 0.08 µM): 0.387; relative viability (EKVX; first compound 0.8 µM): 0.381; relative viability (EKVX; first compound 2.53 µM): 0.412; relative viability (EKVX; first compound 8 µM): 0.417; relative viability (SK-LU-1; first compound 0.08 µM): 0.377; relative viability (SK-LU-1; first compound 0.8 µM): 0.369; relative viability (SK-LU-1; first compound 2.53 µM): 0.379; relative viability (SK-LU-1; first compound 8 µM): 0.323; relative viability (NCI-H1993; first compound 0.08 µM): 0.523; relative viability (NCI-H1993; first compound 0.8 µM): 0.593; relative viability (NCI-H1993; first compound 2.53 µM): 0.594; relative viability (NCI-H1993; first compound 8 µM): 0.548; relative viability (HCC-366; first compound 0.08 µM): 0.108; relative viability (HCC-366; first compound 0.8 µM): 0.188; relative viability (HCC-366; first compound 2.53 µM): 0.177; relative viability (HCC-366; first compound 8 µM): 0.113; relative viability (LXF-289; first compound 0.08 µM): 0.192; relative viability (LXF-289; first compound 0.8 µM): 0.187; relative viability (LXF-289; first compound 2.53 µM): 0.169; relative viability (LXF-289; first compound 8 µM): 0.271; relative viability (NCI-H596; first compound 0.08 µM): 0.821; relative viability (NCI-H596; first compound 0.8 µM): 1.06; relative viability (NCI-H596; first compound 2.53 µM): 0.952; relative viability (NCI-H596; first compound 8 µM): 0.939; relative viability (HCC-78; first compound 0.08 µM): 0.519; relative viability (HCC-78; first compound 0.8 µM): 0.511; relative viability (HCC-78; first compound 2.53 µM): 0.697; relative viability (HCC-78; first compound 8 µM): 0.437; relative viability (NCI-H1975; first compound 0.08 µM): 0.901; relative viability (NCI-H1975; first compound 0.8 µM): 0.745; relative viability (NCI-H1975; first compound 2.53 µM): 0.683; relative viability (NCI-H1975; first compound 8 µM): 0.839; relative viability (NCI-H1650; first compound 0.08 µM): 0.396; relative viability (NCI-H1650; first compound 0.8 µM): 0.452; relative viability (NCI-H1650; first compound 2.53 µM): 0.399; relative viability (NCI-H1650; first compound 8 µM): 0.462; relative viability (NCI-H3122; first compound 0.08 µM): 0.356; relative viability (NCI-H3122; first compound 0.8 µM): 0.457; relative viability (NCI-H3122; first compound 2.53 µM): 0.424; relative viability (NCI-H3122; first compound 8 µM): 0.417; relative viability (HCC-827; first compound 0.08 µM): 0.428; relative viability (HCC-827; first compound 0.8 µM): 0.447; relative viability (HCC-827; first compound 2.53 µM): 0.419; relative viability (HCC-827; first compound 8 µM): 0.424; relative viability (HCC-15; first compound 0.08 µM): 0.412; relative viability (HCC-15; first compound 0.8 µM): 0.486; relative viability (HCC-15; first compound 2.53 µM): 0.55; relative viability (HCC-15; first compound 8 µM): 0.401; relative viability (NCI-H1755; first compound 0.08 µM): 0.666; relative viability (NCI-H1755; first compound 0.8 µM): 0.647; relative viability (NCI-H1755; first compound 2.53 µM): 0.605; relative viability (NCI-H1755; first compound 8 µM): 0.555
